Measurements from patent publication US20260271931A1, “HERBICIDAL MIXTURES” (Bayer Aktiengesellschaft, priority 2023, published 2026).
Where two headings read alike, the source gives them in different places.

How the values were obtained:
Assay type in all cases: in vivo
Bidens pilosa (BIDPI) = experiment: Post-emergence action against weeds, greenhouse pot test, visual rating: Bidens pilosa
Lolium rigidum (LOLRI) = experiment: Post-emergence action against weeds, greenhouse pot test, visual rating: Lolium rigidum; settings: for pest or weed control at […] / pest or weed control at 0.4 g/ha: Lolium rigidum, 504 h, 21 DAT, read-out: Herbicidal effect [%] on LOLRI 21 DAT
Eleusine indica (ELEIN) = experiment: Post-emergence action against weeds, greenhouse pot test, visual rating: Eleusine indica; settings: for pest or weed control at […] / pest or weed control at 0.4 g/ha: Eleusine indica, post-emergence
Procedure: (§1) When the observed efficacies already exceed the formal sum total of the values of the tests with individual applications, they also exceed the expected value according to Colby, which is calculated using the formula below and is likewise regarded as an indication of synergism (cf. S. R. Colby; in Weeds 15 (1967) pp. 20 to 22):
(§2) where: • A=efficacy of the active ingredient (A) in % at an application rate of a [g a.i./ha]; • B=efficacy of the active ingredient (B) in % at an application rate of b [g a.i./ha]; • E^C=expected value of the effect of the combination (A)+(B) in % at the combined application rate a+b [g a.i./ha].
(§3) The observed values (E^A) from the experiments, given suitable low dosages, show an effect of the combinations exceeding the expected values according to Colby (E^C) (Δ).
(§4) Seeds of mono- and dicotyledonous weeds were placed in sandy loam in pots, covered with soil and grown in a greenhouse under good growth conditions (temperature, air humidity, water supply). Two to three weeks after sowing, the test plants were treated at the two- to four-leaf stage with the compositions of the invention. The compositions of the invention, formulated as spray powders or as emulsion concentrates, were sprayed onto the green parts of the plant in various dosages with an application rate equivalent to […] of water. After the test plants had been kept in the greenhouse under optimum growth conditions for 3 weeks, the activity of the preparations was rated visually in comparison to untreated controls.
(§5) 100% efficacy means complete control of the particular weed tested.
(§6) 0% efficacy means zero control of the particular weed tested.
(§7) Expected values according to Colby are reported under E.
(§8) The exceedance of the expected value E is given as Δ (=synergistic effect).
(§9) The rating period is reported in days after application (DAT).

Avena fatua (AVEFA) = experiment: Post-emergence action against weeds, greenhouse pot test, visual rating: Avena fatua; settings: for pest or weed control at […]: Avena fatua, 240 h, 10 DAT, read-out: Herbicidal effect [%] on AVEFA 10 DAT
Centaurea cyanus (CENCY) [1] = experiment: Post-emergence action against weeds, greenhouse pot test, visual rating: Centaurea cyanus
Procedure: as §1, §2, §3, §4, §5, §6, §7, §8, §9

[2] = tested on: Brachiaria platyfylla (BRAPP); experiment: Post-emergence action against weeds, greenhouse pot test, visual rating: Brachiaria platyfylla; settings: for pest or weed control at […] / pest or weed control at 0.4 g/ha: post-emergence
Procedure: as §1, §2, §3, §4, §5, §6, §7, §8, §9

[3] = tested on: Sorghum halepense (SORHA); experiment: Post-emergence action against weeds, greenhouse pot test, visual rating: Sorghum halepense
Procedure, shortened: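 Weeds grown in sandy loam in the greenhouse and sprayed post-emergence at the two- to four-leaf stage (2–3 weeks after sowing) with formulated compositions at various dosages, 300 l/ha water. Visual % efficacy vs untreated controls after 3 weeks (0% none, 100% complete control); combination synergy judged against Colby expected values, rating period given as DAT.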

Centaurea cyanus (CENCY) [4] = experiment: Post-emergence action against weeds, greenhouse pot test, visual rating: Centaurea cyanus; settings: 240 h, read-out: Herbicidal effect [%] on CENCY 10 DAT
[5] = tested on: Echinochloa crus-galli (ECHCG); experiment: Post-emergence action against weeds, greenhouse pot test, visual rating: Echinochloa crus-galli
Kochia scoparia (KCHSC) = experiment: Post-emergence action against weeds, greenhouse pot test, visual rating: Kochia scoparia; settings: for pest or weed control at […] / pest or weed control at 0.4 g/ha: Bassia scoparia, post-emergence, 504 h, read-out: Herbicidal effect [%] on KCHSC 21 DAT
[6] = tested on: Pharbitis purpurea (PHBPU); experiment: Post-emergence action against weeds, greenhouse pot test, visual rating: Pharbitis purpurea
Procedure: as §1, §2, §3, §4, §5, §6, §7, §8, §9

[7] = tested on: Pharbitis purpurea (PHBPU); experiment: as above; settings: 0.4 g a.i./ha
[8] = 504 h, 0.4 g a.i./ha, read-out: Herbicidal effect [%] on ELEIN 21 DAT

CCOC(=O)COc1ncccc1Oc1cc(-n2c(=O)cc(C(C)(F)F)n(C)c2=O)c(F)cc1Cl [Compound A1, ethyl [(3-{2-chloro-5-[4-(1,1-difluoroethyl)-3-methyl-2,6-dioxo-3,6-dihydropyrimidin-1(2H)-yl]-4-fluorophenoxy}pyridin-2-yl)oxy]acetate]
Herbicidal effect [%] on BIDPI 10 DAT (Bidens pilosa (BIDPI); 0.15 g a.i./ha): 20%
Herbicidal effect [%] on BIDPI 21 DAT (Bidens pilosa (BIDPI); 0.15 g a.i./ha): 10%
Herbicidal effect [%] on BIDPI 10 DAT (Bidens pilosa (BIDPI); 0.45 g a.i./ha): 57.5%
Herbicidal effect [%] on BIDPI 21 DAT (Bidens pilosa (BIDPI); 0.45 g a.i./ha): 30%
Herbicidal effect [%] on LOLRI 10 DAT (Lolium rigidum (LOLRI); 0.15 g a.i./ha): 10%
Herbicidal effect [%] on LOLRI 10 DAT (Lolium rigidum (LOLRI); 0.45 g a.i./ha): 15%
pest or weed control at […] (Lolium rigidum (LOLRI); 0.15 g a.i./ha): 5%
pest or weed control at […] (Lolium rigidum (LOLRI); 0.45 g a.i./ha): 5%
pest or weed control at […] (Eleusine indica (ELEIN); 240 h, 0.15 g a.i./ha, read-out: Herbicidal effect [%] on ELEIN 10 DAT): 10%
pest or weed control at […] (Eleusine indica (ELEIN); 240 h, 0.45 g a.i./ha, read-out: Herbicidal effect [%] on ELEIN 10 DAT): 35%
pest or weed control at […] (Eleusine indica (ELEIN); 504 h, 0.15 g a.i./ha, read-out: Herbicidal effect [%] on ELEIN 21 DAT): 5%
pest or weed control at […] (Eleusine indica (ELEIN); 504 h, 0.45 g a.i./ha, read-out: Herbicidal effect [%] on ELEIN 21 DAT): 5%
Herbicidal effect [%] on AVEFA 21 DAT (Avena fatua (AVEFA); 0.15 g a.i./ha): 10%
Herbicidal effect [%] on AVEFA 21 DAT (Avena fatua (AVEFA); 0.45 g a.i./ha): 20%
pest or weed control at […] (Avena fatua (AVEFA); 0.15 g a.i./ha): 5%
pest or weed control at […] (Avena fatua (AVEFA); 0.45 g a.i./ha): 20%
Herbicidal effect [%] on CENCY 21 DAT (Centaurea cyanus (CENCY) [1]; 0.15 g a.i./ha): 15%
Herbicidal effect [%] on CENCY 21 DAT (Centaurea cyanus (CENCY) [1]; 0.45 g a.i./ha): 20%
pest or weed control at […] ([2]; 240 h, 0.15 g a.i./ha, read-out: Herbicidal effect [%] on BRAPP 10 DAT): 30%
pest or weed control at […] ([2]; 240 h, 0.45 g a.i./ha, read-out: Herbicidal effect [%] on BRAPP 10 DAT): 45%
pest or weed control at […] ([2]; 504 h, 0.15 g a.i./ha, read-out: Herbicidal effect [%] on BRAPP 21 DAT): 0%
pest or weed control at […] ([2]; 504 h, 0.45 g a.i./ha, read-out: Herbicidal effect [%] on BRAPP 21 DAT): 0%
Herbicidal effect [%] on SORHA 10 DAT ([3]; 0.15 g a.i./ha): 47.5%
Herbicidal effect [%] on SORHA 21 DAT ([3]; 0.15 g a.i./ha): 49%
Herbicidal effect [%] on SORHA 10 DAT ([3]; 0.45 g a.i./ha): 45%
Herbicidal effect [%] on SORHA 21 DAT ([3]; 0.45 g a.i./ha): 40%
pest or weed control at […] (Centaurea cyanus (CENCY) [4]; 0.15 g a.i./ha): 15%
pest or weed control at […] (Centaurea cyanus (CENCY) [4]; 0.45 g a.i./ha): 40%
Herbicidal effect [%] on ECHCG 10 DAT ([5]; 0.15 g a.i./ha): 10%
Herbicidal effect [%] on ECHCG 21 DAT ([5]; 0.15 g a.i./ha): 10%
Herbicidal effect [%] on ECHCG 10 DAT ([5]; 0.45 g a.i./ha): 25%
Herbicidal effect [%] on ECHCG 21 DAT ([5]; 0.45 g a.i./ha): 20%
Herbicidal effect [%] on KCHSC 10 DAT (Kochia scoparia (KCHSC); 0.15 g a.i./ha): 5%
Herbicidal effect [%] on KCHSC 10 DAT (Kochia scoparia (KCHSC); 0.45 g a.i./ha): 25%
pest or weed control at […] (Kochia scoparia (KCHSC); 0.15 g a.i./ha): 0%
pest or weed control at […] (Kochia scoparia (KCHSC); 0.45 g a.i./ha): 5%
Herbicidal effect [%] on PHBPU 10 DAT ([6]; 0.15 g a.i./ha): 20%
Herbicidal effect [%] on PHBPU 21 DAT ([6]; 0.15 g a.i./ha): 20%
Herbicidal effect [%] on PHBPU 10 DAT ([6]; 0.45 g a.i./ha): 77.5%
Herbicidal effect [%] on PHBPU 21 DAT ([6]; 0.45 g a.i./ha): 50%

C#CCN1C(=O)COc2cc(F)c(N3C(=O)C4=C(CCCC4)C3=O)cc21 [Flumioxazin, flumioxazin]
pest or weed control at 0.4 g/ha (Lolium rigidum (LOLRI); 0.4 g a.i./ha): 0%
pest or weed control at 0.4 g/ha (Eleusine indica (ELEIN); 240 h, 0.4 g a.i./ha, read-out: Herbicidal effect [%] on ELEIN 10 DAT): 30%
pest or weed control at 0.4 g/ha (Eleusine indica (ELEIN); [8]): 0%
pest or weed control at 0.4 g/ha ([2]; 240 h, 0.4 g a.i./ha, read-out: Herbicidal effect [%] on BRAPP 10 DAT): 30%
pest or weed control at 0.4 g/ha ([2]; 504 h, 0.4 g a.i./ha, read-out: Herbicidal effect [%] on BRAPP 21 DAT): 10%
Herbicidal effect [%] on KCHSC 10 DAT (Kochia scoparia (KCHSC); 0.4 g a.i./ha): 30%
pest or weed control at 0.4 g/ha (Kochia scoparia (KCHSC); 0.4 g a.i./ha): 10%
Herbicidal effect [%] on PHBPU 21 DAT ([6]; 0.4 g a.i./ha): 30%
Herbicidal effect [%] on PHBPU 10 DAT [7]: 50%

C=C[C@]1(C(=O)N[C@H]2CO[C@@H](C(=O)OC)C2)CC(c2cc(F)cc(F)c2)=NO1 (relative stereo) [Icafolin-methyl, methyl rel-(2R,4R)-4-[[(5S)-3-(3,5-difluorophenyl)-5-vinyl-4H-isoxazole-5-carbonyl]amino]tetrahydrofuran-2-carboxylate]
Herbicidal effect [%] on LOLRI 10 DAT (Lolium rigidum (LOLRI); 0.4 g a.i./ha): 10%
pest or weed control at 0.4 g/ha (Lolium rigidum (LOLRI); 0.4 g a.i./ha): 0%
pest or weed control at 0.4 g/ha (Eleusine indica (ELEIN); [8]): 0%
Herbicidal effect [%] on AVEFA 21 DAT (Avena fatua (AVEFA); 0.4 g a.i./ha): 10%
pest or weed control at 0.4 g/ha (Centaurea cyanus (CENCY) [4]; 0.4 g a.i./ha): 0%
pest or weed control at 0.4 g/ha (Kochia scoparia (KCHSC); 0.4 g a.i./ha): 0%
Herbicidal effect [%] on PHBPU 10 DAT [7]: 0%

C#CCN1C(=O)C(F)(F)Oc2cc(F)c(-n3c(=O)n(C)c(=S)n(C)c3=O)cc21 [Trifludimoxazin, trifludimoxazin]
Herbicidal effect [%] on BIDPI 10 DAT (Bidens pilosa (BIDPI); 0.4 g a.i./ha): 60%
Herbicidal effect [%] on BIDPI 21 DAT (Bidens pilosa (BIDPI); 0.4 g a.i./ha): 60%
Herbicidal effect [%] on LOLRI 10 DAT (Lolium rigidum (LOLRI); 0.4 g a.i./ha): 20%
Herbicidal effect [%] on ELEIN 10 DAT (Eleusine indica (ELEIN); 0.4 g a.i./ha): 70%
Herbicidal effect [%] on ELEIN 21 DAT (Eleusine indica (ELEIN); 0.4 g a.i./ha): 20%
Herbicidal effect [%] on CENCY 10 DAT (Centaurea cyanus (CENCY) [1]; 0.4 g a.i./ha): 30%
Herbicidal effect [%] on BRAPP 10 DAT ([2]; 0.4 g a.i./ha): 40%
Herbicidal effect [%] on BRAPP 21 DAT ([2]; 0.4 g a.i./ha): 0%
Herbicidal effect [%] on KCHSC 10 DAT (Kochia scoparia (KCHSC); 0.4 g a.i./ha): 85%
Herbicidal effect [%] on KCHSC 21 DAT (Kochia scoparia (KCHSC); 0.4 g a.i./ha): 60%
Herbicidal effect [%] on PHBPU 21 DAT ([6]; 0.4 g a.i./ha): 40%
Herbicidal effect [%] on PHBPU 10 DAT [7]: 80%
